According to patent publication US9617602B2, “Methods and compositions for determining resistance to androgen receptor therapy” (Aragon Pharmaceuticals, Inc., priority 2012, dated 2017):

What was measured:
[1] = tested on: Class 2 resistant cell lines; experiment: Transcriptional reporter assay (probasin-luciferase); assay type: cell-based, human
Protocol: With the exception of the LNCaP/AR(cs)-Luc cells that contain an integrated androgen responsive reporter, cells were transiently transfected using Lipofectin® (Life Technologies) according to the manufacturer's protocol. […] Following transfection, the cells were incubated for 4 hours.
Following 48 hour incubation the medium was removed and the cells were lysed in 40 μL of lysis buffer (25 mM Tris Phosphate, 2 mM CDTA, 10% Glycerol, 0.5% Triton X-100, 2 mM DTT).

LNCaP/AR(cs) cells = experiment: Endogenous gene transcriptional assay (real-time PCR of androgen responsive genes); assay type: cell-based, human
Protocol: Total RNA was isolated using the Aurum™ total RNA isolation kit (BIO-RAD, Hercules, Calif.). RNA (1 μg) was reverse transcribed using the iScript cDNA synthesis kit (BIO-RAD, Hercules, Calif.) to produce cDNA. Real-time PCR was performed using the Applied Biosystems 7900HT instrument and SYBR Green PCR Master Mix (Applied Biosystems, Foster City, Calif.). PCR reactions were performed in 6 μL according to the manufacturer's protocol and a thermocycle protocol of 95° C. for 10 minutes followed by 40 cycles of 95° C. for 15 seconds and 58° C. for 1 minute. Androgen responsive gene (PSA, SLUG, TMPRSS2, STEAP4, FKBP5, ORM1, NOV, FASN, NKX3.1, AMIGO2, BDNF, CAMK2N1, HPGD, NCAPD3, PLD1) expression was normalized to GAPDH expression and expressed relative to vehicle treatment of the parental cell line.
Gene expression was normalized to GAPDH as described above.

[2] = Table 4A, 1 nM R1881 or 30 μM compound, vehicle=1.00

Question: What does the source list for `CNC(=O)c1ccc(N2C(=S)N(c3cnc(C#N)c(C(F)(F)F)c3)C(=O)C23CCC3)cc1F` [ARN-509]?
Answer: Agonist activity in probasin-luciferase reporter assay, Class 2 resistant cells [1]: no agonist activity; Agonist Transcriptional Reporter Assay (% Max Activity) ([1]; Class 2, [Antagonists] = 50 μM): + (‘+’ = <5); Antagonist Transcriptional Reporter Assay (% Max Activity) ([1]; Class 2, [Antagonists] = 50 μM in presence of R1881): + (‘+’ = <5); AMIGO2 expression, antagonist transcription (LNCaP/AR(cs) cells; +1 nM R1881, 0.3 μM): 0.30; BDNF expression, antagonist transcription (LNCaP/AR(cs) cells; +1 nM R1881, 0.3 μM): 0.43; CAM2KN1 expression, antagonist transcription (LNCaP/AR(cs) cells; +1 nM R1881, 0.3 μM): 0.04; FASN expression, antagonist transcription (LNCaP/AR(cs) cells; +1 nM R1881, 0.3 μM): 1.92; FKBP5 expression, antagonist transcription (LNCaP/AR(cs) cells; +1 nM R1881, 0.3 μM): 33.14; HPGD expression, antagonist transcription (LNCaP/AR(cs) cells; +1 nM R1881, 0.3 μM): 105.97; NCAPD3 expression, antagonist transcription (LNCaP/AR(cs) cells; +1 nM R1881, 0.3 μM): 43.93; NKX3.1 expression, antagonist transcription (LNCaP/AR(cs) cells; +1 nM R1881, 0.3 μM): 8.32; NOV expression, antagonist transcription (LNCaP/AR(cs) cells; +1 nM R1881, 0.3 μM): 0.03; ORM1 expression, antagonist transcription (LNCaP/AR(cs) cells; +1 nM R1881, 0.3 μM): 5100.90; PLD1 expression, antagonist transcription (LNCaP/AR(cs) cells; +1 nM R1881, 0.3 μM): 0.02; PSA expression, antagonist transcription (LNCaP/AR(cs) cells; +1 nM R1881, 0.3 μM): 19.09; SLUG expression, antagonist transcription (LNCaP/AR(cs) cells; +1 nM R1881, 0.3 μM): 71.33; STEAP4 expression, antagonist transcription (LNCaP/AR(cs) cells; +1 nM R1881, 0.3 μM): 1019.98; TMPRSS2 expression, antagonist transcription (LNCaP/AR(cs) cells; +1 nM R1881, 0.3 μM): 19.07; AMIGO2 expression, antagonist transcription (LNCaP/AR(cs) cells; +1 nM R1881, 1 μM): 0.31; BDNF expression, antagonist transcription (LNCaP/AR(cs) cells; +1 nM R1881, 1 μM): 0.35; CAM2KN1 expression, antagonist transcription (LNCaP/AR(cs) cells; +1 nM R1881, 1 μM): 0.06; FASN expression, antagonist transcription (LNCaP/AR(cs) cells; +1 nM R1881, 1 μM): 1.52; FKBP5 expression, antagonist transcription (LNCaP/AR(cs) cells; +1 nM R1881, 1 μM): 22.49; HPGD expression, antagonist transcription (LNCaP/AR(cs) cells; +1 nM R1881, 1 μM): 76.25; NCAPD3 expression, antagonist transcription (LNCaP/AR(cs) cells; +1 nM R1881, 1 μM): 32.00; NKX3.1 expression, antagonist transcription (LNCaP/AR(cs) cells; +1 nM R1881, 1 μM): 9.92; NOV expression, antagonist transcription (LNCaP/AR(cs) cells; +1 nM R1881, 1 μM): 0.09; ORM1 expression, antagonist transcription (LNCaP/AR(cs) cells; +1 nM R1881, 1 μM): 2679.73; PLD1 expression, antagonist transcription (LNCaP/AR(cs) cells; +1 nM R1881, 1 μM): 0.02; PSA expression, antagonist transcription (LNCaP/AR(cs) cells; +1 nM R1881, 1 μM): 21.75; SLUG expression, antagonist transcription (LNCaP/AR(cs) cells; +1 nM R1881, 1 μM): 62.00; STEAP4 expression, antagonist transcription (LNCaP/AR(cs) cells; +1 nM R1881, 1 μM): 742.61; TMPRSS2 expression, antagonist transcription (LNCaP/AR(cs) cells; +1 nM R1881, 1 μM): 24.11; AMIGO2 expression, antagonist transcription (LNCaP/AR(cs) cells; +1 nM R1881, 3 μM): 0.52; BDNF expression, antagonist transcription (LNCaP/AR(cs) cells; +1 nM R1881, 3 μM): 0.67; CAM2KN1 expression, antagonist transcription (LNCaP/AR(cs) cells; +1 nM R1881, 3 μM): 0.19; FASN expression, antagonist transcription (LNCaP/AR(cs) cells; +1 nM R1881, 3 μM): 1.08; FKBP5 expression, antagonist transcription (LNCaP/AR(cs) cells; +1 nM R1881, 3 μM): 12.56; HPGD expression, antagonist transcription (LNCaP/AR(cs) cells; +1 nM R1881, 3 μM): 32.19; NCAPD3 expression, antagonist transcription (LNCaP/AR(cs) cells; +1 nM R1881, 3 μM): 15.57; NKX3.1 expression, antagonist transcription (LNCaP/AR(cs) cells; +1 nM R1881, 3 μM): 12.01; NOV expression, antagonist transcription (LNCaP/AR(cs) cells; +1 nM R1881, 3 μM): 0.31; ORM1 expression, antagonist transcription (LNCaP/AR(cs) cells; +1 nM R1881, 3 μM): 1031.40; PLD1 expression, antagonist transcription (LNCaP/AR(cs) cells; +1 nM R1881, 3 μM): 0.04; PSA expression, antagonist transcription (LNCaP/AR(cs) cells; +1 nM R1881, 3 μM): 23.57; SLUG expression, antagonist transcription (LNCaP/AR(cs) cells; +1 nM R1881, 3 μM): 50.70; STEAP4 expression, antagonist transcription (LNCaP/AR(cs) cells; +1 nM R1881, 3 μM): 256.89; TMPRSS2 expression, antagonist transcription (LNCaP/AR(cs) cells; +1 nM R1881, 3 μM): 23.38; AMIGO2 expression, antagonist transcription (LNCaP/AR(cs) cells; +1 nM R1881, 10 μM): 0.60; BDNF expression, antagonist transcription (LNCaP/AR(cs) cells; +1 nM R1881, 10 μM): 0.74; CAM2KN1 expression, antagonist transcription (LNCaP/AR(cs) cells; +1 nM R1881, 10 μM): 0.43; FASN expression, antagonist transcription (LNCaP/AR(cs) cells; +1 nM R1881, 10 μM): 0.60; FKBP5 expression, antagonist transcription (LNCaP/AR(cs) cells; +1 nM R1881, 10 μM): 2.74; HPGD expression, antagonist transcription (LNCaP/AR(cs) cells; +1 nM R1881, 10 μM): 8.36; NCAPD3 expression, antagonist transcription (LNCaP/AR(cs) cells; +1 nM R1881, 10 μM): 2.39; NKX3.1 expression, antagonist transcription (LNCaP/AR(cs) cells; +1 nM R1881, 10 μM): 7.22; NOV expression, antagonist transcription (LNCaP/AR(cs) cells; +1 nM R1881, 10 μM): 0.86; ORM1 expression, antagonist transcription (LNCaP/AR(cs) cells; +1 nM R1881, 10 μM): 156.90; PLD1 expression, antagonist transcription (LNCaP/AR(cs) cells; +1 nM R1881, 10 μM): 0.11; PSA expression, antagonist transcription (LNCaP/AR(cs) cells; +1 nM R1881, 10 μM): 12.90; SLUG expression, antagonist transcription (LNCaP/AR(cs) cells; +1 nM R1881, 10 μM): 11.15; STEAP4 expression, antagonist transcription (LNCaP/AR(cs) cells; +1 nM R1881, 10 μM): 32.98; TMPRSS2 expression, antagonist transcription (LNCaP/AR(cs) cells; +1 nM R1881, 10 μM): 11.45; AMIGO2 expression, antagonist transcription (LNCaP/AR(cs) cells; +1 nM R1881, 30 μM): 0.76; BDNF expression, antagonist transcription (LNCaP/AR(cs) cells; +1 nM R1881, 30 μM): 0.88; CAM2KN1 expression, antagonist transcription (LNCaP/AR(cs) cells; +1 nM R1881, 30 μM): 0.42; FASN expression, antagonist transcription (LNCaP/AR(cs) cells; +1 nM R1881, 30 μM): 0.64; FKBP5 expression, antagonist transcription (LNCaP/AR(cs) cells; +1 nM R1881, 30 μM): 1.08; HPGD expression, antagonist transcription (LNCaP/AR(cs) cells; +1 nM R1881, 30 μM): 2.78; NCAPD3 expression, antagonist transcription (LNCaP/AR(cs) cells; +1 nM R1881, 30 μM): 0.96; NKX3.1 expression, antagonist transcription (LNCaP/AR(cs) cells; +1 nM R1881, 30 μM): 5.49; NOV expression, antagonist transcription (LNCaP/AR(cs) cells; +1 nM R1881, 30 μM): 0.82; ORM1 expression, antagonist transcription (LNCaP/AR(cs) cells; +1 nM R1881, 30 μM): 16.42; PLD1 expression, antagonist transcription (LNCaP/AR(cs) cells; +1 nM R1881, 30 μM): 0.32; PSA expression, antagonist transcription (LNCaP/AR(cs) cells; +1 nM R1881, 30 μM): 7.20; SLUG expression, antagonist transcription (LNCaP/AR(cs) cells; +1 nM R1881, 30 μM): 5.49; STEAP4 expression, antagonist transcription (LNCaP/AR(cs) cells; +1 nM R1881, 30 μM): 6.86; TMPRSS2 expression, antagonist transcription (LNCaP/AR(cs) cells; +1 nM R1881, 30 μM): 5.94; AMIGO2 gene expression (LNCaP/AR(cs) cells; [2]): 0.72; BDNF gene expression (LNCaP/AR(cs) cells; [2]): 0.85; CAM2KN1 gene expression (LNCaP/AR(cs) cells; [2]): 0.80; FASN gene expression (LNCaP/AR(cs) cells; [2]): 0.75; FKBP5 gene expression (LNCaP/AR(cs) cells; [2]): 0.99; HPGD gene expression (LNCaP/AR(cs) cells; [2]): 1.18
